Entries after “also recorded” stand apart in the source; their conditions may differ.
How the values were obtained:
tau = assay: Tau phosphorylation (Western blots) in metabolically active rat brain slices; type: cell-based; details: rat brain slices; for BMAA-induced tau hyperphosphorylation at the 12E8 site: 30 min preincubation
Protocol: (§1) Male Wistar rats (Charles River Laboratories), 2-3 months old, were anesthetized by i.p. injection with 50 mg/kg Nembutal. The animals were decapitated when deeply anesthetized. The brains were removed immediately and cooled in ice-cold (4° C.) oxygenated artificial cerebrospinal fluid (aCSF) consisting of 126 mM NaCl, 3.5 mM KCl, 1.2 mM NaH2PO4, 1.3 mM MgCl2, 2 mM CaCl2, 11 mM D(+) glucose, and 25 mM NaHCO3 (pH 7.4) for 7-8 min. Each brain then was divided sagittally, and 400-μm-thick coronal slices were made with a Camden Vibraslicer (WP, Inc.). The slices were transferred into a chamber containing the oxygenated aCSF and were incubated at 33° C. for 2 h in the presence or absence of 1 mM, β-N ? methylamino-L-alanine (BMAA) dissolved in 10 mM NaHCO3 (Sigma). The oxygenation of the aCSF was carried out by bubbling the solution with a mixture of 95% O2 and 5% CO2 during the entire procedure. At the end of incubation, the brain slices were homogenized with homogenizing buffer [50 mM Tris·HCl (pH 7.4), 8.5% (wt/vol) sucrose, 2 mM EDTA, 2 mM EGTA, 10 mM (3-mercaptoethanol, 5 mM benzamidine, 0.5 mM 4-(2-Aminoethyl) benzenesulfonyl fluoride hydrochloride (AEBSF), 4 μg/mL pepstatin A, and 10 μg/mL each of aprotinin and leupepin] at a ratio of 9.0 mL buffer/1.0 g tissue slices. The homogenates were divided into two parts. One part was centrifuged at 16,000×g for 10 min, and the resulting supernatant was used to assay protein phosphatase 2A (PP2A) activity. Into the other half, an equal volume of phosphatase-inhibitor mixture (20 mM 3-glycerophosphate, 2 mM Na3VO4, and 100 mM NaF) was added immediately, and the samples were used for Western blots.
Protein was fractionated by 10% SDS/PAGE, transferred to PVDF membrane, and then blocked with 5% skim milk for 1 h at room temperature. The membrane was probed with anti-IPP2A (5G6, 1:1, 500) (7), anti-I2P2A (10E7, 1:1, 600) (7), anti-tau ˜92e; 1:5,000) (8), anti-tau (R134d; 1:5 000) (9), anti-tau pSer^262/^356 (12E8; 1:500) (10, anti-tau pSer^199, anti-tau pThr^205, anti-tau pThr^212, and pSer^396 (1:1,000) (Biosource), anti-GAPDH (1:2,000) (Santa Cruz Biotechnology), anti-PP2Ac (1:10 000) (BD Transduction Lab), anti pY^307-PP2A and anti-DML^309-PP2A (1:1,000) (Millipore), anti-GSK-3(α/β), anti-pS^9-GSK-3 β, anti-ERK1/2, anti-pT^202/Y^204-ERK1/2, anti-MEK1/2, anti-p9^17/221-MEK1/2, anti-CAMKII, anti-pT^286-CAMKII, anti-p70 S6 kinase, anti-pT^389-p70 S6 kinase, anti-SAPK/JNK, and anti-pT^183/Y^185-SAPK/JNK (1:1,000) (Cell Signaling Technology). The membrane then was incubated with HRP-conjugated secondary antibody (Jackson ImmunoResearch). The protein bands were detected with the enhanced chemiluminescence reagents (Thermo Scientific). Band intensity was measured by Multi-Gauge V3 software (Fuji Photo Film).

PP2A = PP2A activity (phosphatase ELISA) in rat brain slices; type: cell-based; details: 30 min pretreatment, BMAA 1 mM 2 h, rat brain slices
Protocol: as §1

mGluR5-PP2A complex = biological target: T1, mGluR5-PP2A complex (Mus musculus, UniProt Q3UVX5); assay: Coimmunoprecipitation of PP2Ac with mGluR5 in primary neurons; type: cell-based
T1 construct: endogenous in cells; host or cells: mouse primary hippocampal neuronal cultures
Protocol: Mouse hippocampal cell proteins were prepared with low-stringency lysis buffer [50 mM Hepes (pH 7.4), 10% (vol/vol) glycerol, 1.5 mM MgCl2, 5 mM NaF, 1 mM Na3VO4, 1 mM EDTA, 1 mM EGTA, 1% Nonidet P-40, 5 mM AEBSF, 10 μg/mL aprotinin, leupeptin, pepstatin] and were homogenized by several freeze-thaw cycles followed by water bath sonication. The homogenate was centrifuged at 14,000×g at 4° C. for 15 min. For transfection experiments with vector (DsRed) and with DsRed-PP2A catalytic subunit (PP2Ac), primary neurons were processed in a similar manner. The supernatants then were used for immunoprecipitation with mouse anti-PP2A (1D6; Millipore) followed by incubation with protein G-Sepharose (Thermo Scientific). The Western blots of immunoprecipitates were probed with rabbit anti-mGluR5 (Millipore) and rabbit anti-PP2Ac [R123d] (FIG. 55).

ERK1/2 = ERK1/2 phosphorylation in primary neurons treated with okadaic acid; type: cell-based, mouse; details: okadaic acid 10-100 nM, 30 min
Protocol: FIGS. 11A and 11B are images showing the inhibition of PP2A induces ERK1/2 phosphorylation. Primary neurons were treated with the PP2A inhibitor okadaic acid (OA, 10-100 nM) for 30 min and were processed for ERK1/2 analysis. (A) Representative Western blots showing phosphorylation of ERK1/2. (B) Quantitative analysis of pERK1/2 after normalization with total ERK1/2. Data are expressed as mean±SEM. *P<0.05; **P<0.01.
Protein was fractionated by 10% SDS/PAGE, transferred to PVDF membrane, and then blocked with 5% skim milk for 1 h at room temperature. […] The protein bands were detected with the enhanced chemiluminescence reagents (Thermo Scientific). Band intensity was measured by Multi-Gauge V3 software (Fuji Photo Film).

T1 sequence (Q3UVX5 19-1203, one chain of several): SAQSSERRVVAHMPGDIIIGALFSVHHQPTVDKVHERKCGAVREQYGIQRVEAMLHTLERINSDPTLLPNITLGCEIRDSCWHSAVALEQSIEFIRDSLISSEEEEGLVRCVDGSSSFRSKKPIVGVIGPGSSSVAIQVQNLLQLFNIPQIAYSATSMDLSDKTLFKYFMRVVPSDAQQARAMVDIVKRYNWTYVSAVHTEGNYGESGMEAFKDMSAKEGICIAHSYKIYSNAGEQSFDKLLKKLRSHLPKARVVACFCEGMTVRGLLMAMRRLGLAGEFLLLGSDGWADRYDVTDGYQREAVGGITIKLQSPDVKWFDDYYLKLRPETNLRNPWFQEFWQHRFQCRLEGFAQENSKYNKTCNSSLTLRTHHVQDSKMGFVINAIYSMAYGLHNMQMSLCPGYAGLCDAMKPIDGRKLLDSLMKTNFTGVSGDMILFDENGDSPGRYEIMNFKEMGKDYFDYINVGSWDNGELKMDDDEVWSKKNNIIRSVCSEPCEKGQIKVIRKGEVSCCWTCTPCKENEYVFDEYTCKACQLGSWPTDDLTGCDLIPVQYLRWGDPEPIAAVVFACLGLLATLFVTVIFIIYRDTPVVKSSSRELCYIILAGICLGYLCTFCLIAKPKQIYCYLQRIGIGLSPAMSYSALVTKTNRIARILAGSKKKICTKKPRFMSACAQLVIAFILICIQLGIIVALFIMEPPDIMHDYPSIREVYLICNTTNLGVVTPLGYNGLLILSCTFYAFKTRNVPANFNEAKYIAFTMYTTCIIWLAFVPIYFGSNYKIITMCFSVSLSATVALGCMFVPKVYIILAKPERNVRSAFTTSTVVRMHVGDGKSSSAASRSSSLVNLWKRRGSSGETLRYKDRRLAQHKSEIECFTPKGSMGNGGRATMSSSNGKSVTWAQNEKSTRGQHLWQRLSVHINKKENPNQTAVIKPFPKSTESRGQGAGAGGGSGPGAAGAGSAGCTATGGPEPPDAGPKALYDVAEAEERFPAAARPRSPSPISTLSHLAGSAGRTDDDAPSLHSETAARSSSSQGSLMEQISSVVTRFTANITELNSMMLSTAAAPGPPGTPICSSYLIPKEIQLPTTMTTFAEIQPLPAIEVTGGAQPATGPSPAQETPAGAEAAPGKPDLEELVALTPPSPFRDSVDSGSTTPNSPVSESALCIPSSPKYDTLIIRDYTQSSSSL

For `Cc1cccc(C#Cc2ccccc2)n1` [MPEP, 2-methyl-6-(phenylethynyl)pyridine], the “BMAA-induced tau hyperphosphorylation at the 12E8 site” value (tau; 50 μM MPEP, BMAA 1 mM 2 h) was “significantly blocked”, the “BMAA induced decrease in PP2A activity blocked by pretreatment” value (PP2A; MPEP 50 μM) was “blocked completely” and the “BMAA-induced dissociation of PP2A from mGluR5” value (mGluR5-PP2A complex) was “completely blocked”.
With `CCCCCCCCCCCCC/C=C/[C@@H](O)[C@@H](N)CO` [DES, D-Erythro-S] the BMAA-induced tau hyperphosphorylation (tau; DES 15 nM pretreatment, BMAA 1 mM 2 h) was “blocked; also recorded: entirely prevented”.
In the case of `N#Cc1cc2c(cc1[N+](=O)[O-])=NC(=O)C(=O)N=2` [CNQX, 6-cyano-7-nitroquinoxaline-2,3-dione], the “BMAA-induced tau hyperphosphorylation at the 12E8 site” value (tau; CNQX 20 μM alone, BMAA 1 mM 2 h) is reported as “no significant change” and the “BMAA induced decrease in PP2A activity blocked by pretreatment” value (PP2A; CNQX 20 μM) is reported as “not”.
For `C=C1[C@@H](O)[C@@H]2O[C@]3(CC[C@H](/C=C/[C@@H](C)[C@@H]4CC(C)=C[C@@]5(O[C@H](C[C@@](C)(O)C(=O)O)CC[C@H]5O)O4)O3)CC[C@H]2O[C@@H]1[C@@H](O)C[C@H](C)[C@H]1O[C@@]2(CCCCO2)CC[C@H]1C` [okadaic acid], the ERK1/2 phosphorylation (ERK1/2) was “up-regulates”.
For `CC(C)(C)n1nc(-c2ccc(Cl)cc2)c2c(N)ncnc21` [PP2], the BMAA-induced tau hyperphosphorylation (tau; PP2 10 μM, 30 min before BMAA) was “blocked; also recorded: significantly attenuated”.
